Here are results for eight molecules from PMC9186412, “Rational Framework for the Design of Trp- and Arg-Rich Peptide Antibiotics Against Multidrug-Resistant Bacteria” (Frontiers in Microbiology, 2022).

Converted amounts (≈) assume the structure as drawn. Like-named read-outs stand apart in the source and are kept apart here. Where no end group is shown, it is not given here.

Test [1] concerns A. baumannii. In words: microbe, parasite or virus in culture. It counts as cell-based, Acinetobacter baumannii. The following applies: 18 h. As for the experimental part: (§1) Bacterial clinical isolates, used for initial screening and in previous studies ([Deslouches et al., 2013]; [Lin et al., 2018]), were anonymously provided by the clinical microbiology laboratory of the University of Pittsburgh medical Center. The panel used for secondary screening was from [CDC (2013)] (Supplementary Table 3), with resistance profiles data. Bacteria are stored in lock-secured –80°C freezer and typically retrieved by obtaining single colonies on agar plates prior for subsequent liquid broth cultures. Suspensions of test bacteria were prepared from log phase of growth by diluting overnight cultures at 1:100 with fresh cation-adjusted MHB (MHB2, Millipore Sigma, United States) and incubating for additional 3–4 h. Bacteria were spun at 3,000 × g for 10 min and the pellet resuspended in test condition media (Millipore Sigma, United States) to determine bacterial turbidity using a Den-1B densitometer (Grant Instruments, United States) at 0.5 McFarland (unit of bacterial density) corresponding to […].
(§2) To examine antibacterial activity, we used minor modifications of a standard growth inhibition assay endorsed by the Clinical and Laboratory Standards Institute (CLSI), as previously described ([Deslouches et al., 2013]). Bacteria were incubated with each of the indicated peptides in MHB2. The bacterial cells were kept in an incubator for 18 h at 37°C, which is linked to a robotic system that feeds a plate reader every hour with one of 8 × 96-well plates. This set-up allows the collection of growth kinetic data at A 570 (absorbance at 570 nm) to examine growth inhibition in real time (BioTek Instruments, United States). […] The assays are typically repeated a second time. If the MIC is different, a third experimental trial is performed to confirm the MIC. To assess bactericidal properties of the peptide, the assay was modified by using 15% fetal bovine serum (FBS, for a more physiologically relevant test condition) mixed with 25% MHB2 and 60% PBS. Bacterial cells (colony forming unit/mL or CFU/mL) were enumerated after incubating treated bacteria for 3 h and plating serially diluted samples on broth agar medium at 37°C overnight. Minimum bactericidal concentration (MBC) was determined as the peptide concentration at which complete bacterial killing was observed. […] Data were analyzed using GraphPad Prism software.

Test [2] relates to E. coli. In words: microbe, parasite or virus in culture. The format is cell-based, Escherichia coli. As for the experimental part:
as §1, §2

Test [3] has as its system Enterobacter spp. Put plainly: microbe, parasite or virus in culture. The following applies: Enterobacter, 18 h, UPMC, MHB2, 18 h, 37°C. It counts as cell-based, Enterobacter spp (aerogenes, cloacae). As for the experimental part: as §1, §2
The test system of test [4] is K. pneumoniae. Put plainly: microbe, parasite or virus in culture. The following applies: Klebsiella pneumoniae, 18 h, MHB2, 18 h, 37°C. It counts as cell-based, Klebsiella pneumoniae. The method, then:
as §1, §2

For test [5], the system named is CDC AR isolates. Details: key: S (green), susceptible; I (blue), intermediate; R (red), resistant. The following applies: data provided by the CDC, ref CDC, cited from earlier work. From the text:
Supplement Table_3.XLSX, sheet "CDC AR isolates profiles" | column: G(-) strains

The test system of test [6] is CDC AR isolates. Details: key: S (green), susceptible; I (blue), intermediate; R (red), resistant. The settings on record: data provided by the CDC, ref CDC, cited from earlier work. This is another data set of the same source.
Setting [7] is: Acinetobacter baumannii AB273, CDC AR isolate.
Where [8] appears, read: Acinetobacter baumannii AB274, CDC AR isolate.
Where [9] appears, read: Acinetobacter baumannii AB275, CDC AR isolate.
Setting [10] is: Acinetobacter baumannii AB276, CDC AR isolate.
[11] abbreviates: Enterobacter cloacae E62, CDC AR isolate.
The mark [12] stands for this setting: Enterobacter cloacae E544, CDC AR isolate.
[13] abbreviates: Enterobacter cloacae E545, CDC AR isolate.
Setting [14] is: Enterobacter cloacae E546, CDC AR isolate.
The mark [15] stands for this setting: Escherichia coli EC541, CDC AR isolate.
[16] abbreviates: Escherichia coli EC543, CDC AR isolate.
[17] abbreviates: Escherichia coli EC544, CDC AR isolate.
The mark [18] stands for this setting: Escherichia coli EC549, CDC AR isolate.
The mark [19] stands for this setting: Klebsiella pneumoniae KP542, CDC AR isolate.
The mark [20] stands for this setting: Klebsiella pneumoniae KP548, CDC AR isolate.
[21] abbreviates: Klebsiella pneumoniae KP550, CDC AR isolate.
[22] abbreviates: Klebsiella pneumoniae KP552, CDC AR isolate.
The mark [23] stands for this setting: Pseudomonas aeruginosa PA229, CDC AR isolate.
The mark [24] stands for this setting: Pseudomonas aeruginosa PA230, CDC AR isolate.
Setting [25] is: Pseudomonas aeruginosa PA231, CDC AR isolate.
Setting [26] is: Pseudomonas aeruginosa PA232, CDC AR isolate.
[27] abbreviates: Pseudomonas aeruginosa PA239, CDC AR isolate.
The mark [28] stands for this setting: Staphylococcus aureus SA462, CDC AR isolate.
[29] abbreviates: Staphylococcus aureus SA463, CDC AR isolate.
Setting [30] is: Staphylococcus aureus SA461, CDC AR isolate.
[31] abbreviates: Staphylococcus aureus SA561, CDC AR isolate.

RRWVRWVRRWVRWVRR [E80] returned an MIC in test [1] of 16 µM.

Turning to `C[C@@H](O)[C@H]1C(=O)N2C(C(=O)O)=C(S[C@@H]3CN[C@H](C(=O)N(C)C)C3)[C@H](C)[C@H]12` [Meropenem, reference compound], the MIC in test [1] (Acinetobacter baumannii, strain AB-A2, UPMC clinical strain, MHB2, 18 h, 37°C, A570, confirmed by 2nd or 3rd trial) was 4 µM (≈ 1.53 µg/mL); in test [1] (Acinetobacter baumannii, strain AB-A3, UPMC, MHB2, 18 h, 37°C), more than 16 µM; in test [1] (Acinetobacter baumannii, strain AB-F8, UPMC, MHB2, 18 h, 37°C), 8 µM (≈ 3.07 µg/mL); in test [1] (Acinetobacter baumannii, strain AB-F9, UPMC, MHB2, 18 h, 37°C), 8 µM (≈ 3.07 µg/mL); in test [2] (Escherichia coli, 18 h, strain Eco25922, MHB2, 18 h, 37°C), 0.5 µM (≈ 0.192 µg/mL); in test [2] (Escherichia coli, 18 h, strain YDC107, UPMC, MHB2, 18 h, 37°C), 1 µM (≈ 0.383 µg/mL). In addition, the MIC in test [2] (Escherichia coli, 18 h, strain YDC337, UPMC, MHB2, 18 h, 37°C) is 8 µM (≈ 3.07 µg/mL); in test [2] (Escherichia coli, 18 h, strain YDC748, UPMC, MHB2, 18 h, 37°C), 8 µM (≈ 3.07 µg/mL); in test [3] (strain EA518 (aerogenes)), more than 16 µM; in test [3] (strain EA596 (aerogenes)) it was 16 µM (≈ 6.14 µg/mL); in test [3] (strain EC470 (cloacae)), more than 16 µM; in test [3] (strain EC560 (cloacae)), 16 µM (≈ 6.14 µg/mL). Also, the MIC was 1 µM (≈ 0.383 µg/mL) in test [4] (strain KP43816); 2 µM (≈ 0.767 µg/mL) in test [4] (strain KPA5 (colistin-resistant), UPMC); 2 µM (≈ 0.767 µg/mL) in test [4] (strain KPB3, UPMC); 1 µM (≈ 0.383 µg/mL) in test [4] (strain KPC3, UPMC). Moreover, the Antibiotic susceptibility profile result in test [5] (setting [7]) was “R”; in test [5] (setting [8]) it was “R”; in test [5] (setting [9]), “R”; in test [5] (setting [10]) it was “R”; in test [5] (setting [11]), “S”; in test [5] (setting [12]) it was “R”. For the same molecule, the Antibiotic susceptibility profile entry in test [5] (setting [13]) is “S”; in test [5] (setting [14]), “I”; in test [5] (setting [15]), “S”; in test [5] (setting [16]), “I”; in test [5] (setting [17]), “R”; in test [5] (setting [18]) it was “R”. The Antibiotic susceptibility profile result in test [5] (setting [19]) was “I”; in test [5] (setting [20]) it was “R”; in test [5] (setting [21]), “R”; in test [5] (setting [22]) it was “R”; in test [5] (setting [23]), “R”; in test [5] (setting [24]) it was “R”. Also, the results for the Antibiotic susceptibility profile result in test [5] (setting [25]), in test [5] (setting [26]) and in test [5] (setting [27]) were “R”, “I” and “R”, respectively.

In turn, RRVWRRVRRVWRRVRRVVRRVW [E71] had an MIC in test [1] of 8 µM.

Molecule RRVWRRVRRVWRRVRRWVRRVV [E72] registered an MIC in test [2] of 0.5 µM.

Turning to RVWRRVRRVWRRVRRVWRRV [E69], the MIC in test [1] is 8 µM.

`CO[C@H]1/C=C/O[C@@]2(C)Oc3c(C)c(O)c4c(O)c(c(/C=N/N5CCN(C)CC5)c(O)c4c3C2=O)NC(=O)/C(C)=C\C=C\[C@H](C)[C@H](O)[C@@H](C)[C@@H](O)[C@@H](C)[C@H](OC(C)=O)[C@@H]1C` [Rifampin]: the Antibiotic susceptibility profile result in test [5] (Enterococcus faecium EF500, CDC AR isolate) was “R”; in test [5] (Enterococcus faecium EF671, CDC AR isolate), “I”; in test [5] (Enterococcus faecium EF672, CDC AR isolate), “I”; in test [5] (setting [28]) it was “S”; in test [5] (setting [29]), “S”; in test [6] (Enterococcus faecium EF673, CDC AR isolate), “S”. Further, the Antibiotic susceptibility profile result in test [6] (setting [30]) is “S”.

As for `CCC[C@@H]1C[C@@H](C(=O)N[C@@H]([C@H]2O[C@H](SC)[C@H](O)[C@@H](O)[C@H]2O)[C@H](C)Cl)N(C)C1` [Clindamycin], the Antibiotic susceptibility profile entry in test [5] (setting [28]) was “S”; in test [5] (setting [29]) it was “S”; in test [5] (setting [31]), “S”; in test [6] (setting [30]), “R”.

`CNC(C)C1CCC(N)C(OC2C(N)CC(N)C(OC3OCC(C)(O)C(NC)C3O)C2O)O1` (centres unmarked) [Gentamicin]: the Antibiotic susceptibility profile entry in test [5] (setting [7]) is listed as “R”; in test [5] (setting [8]), “R”; in test [5] (setting [9]), “R”; in test [5] (setting [10]), “R”; in test [5] (setting [11]), “S”; in test [5] (setting [12]), “R”. Besides, the Antibiotic susceptibility profile entry is on record as “R” in test [5] (setting [13]); “S” in test [5] (setting [14]); “S” in test [5] (setting [15]); “R” in test [5] (setting [16]); “R” in test [5] (setting [17]); “S” in test [5] (setting [18]). Besides, the Antibiotic susceptibility profile result in test [5] (setting [19]) was “R”; in test [5] (setting [20]), “S”; in test [5] (setting [21]), “R”; in test [5] (setting [22]), “S”; in test [5] (setting [23]), “S”; in test [5] (setting [24]), “R”. Also, the Antibiotic susceptibility profile entry in test [5] (setting [25]) is reported as “R”; in test [5] (setting [26]), “R”; in test [5] (setting [27]), “R”; in test [5] (setting [28]), “S”; in test [5] (setting [29]) it was “S”; in test [5] (setting [31]), “S”. Also, in test [6] (setting [30]), the Antibiotic susceptibility profile result is recorded as “S”.
